Source: ChEMBL document CHEMBL1201862, “PubChem BioAssay data set” (2004)
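Results reflect a 48-hour exposure of cells in 96-well plates to compound at five concentrations. The concentration for 50% growth inhibition is given as GI50.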 Activity calls are given as the source filed them. Cut-off read from the data, not from the text of the source: active = GI50 up to about 1.1 µM and inactive = higher.

Tests used:
Assay in all cases: inhibition of tumour cell growth, NCI panel, 48 h
[1] = tested on: 786-0
[2] = tested on: U-251
[3] = tested on: CCRF-CEM
[4] = tested on: UO-31
[5] = tested on: UACC-62
[6] = tested on: A549
[7] = tested on: IGROV-1
[8] = tested on: OVCAR-5
[9] = tested on: CAKI-1
[10] = tested on: UACC-257
[11] = tested on: SF-268
[12] = tested on: SW-620
[13] = tested on: HCC 2998
[14] = tested on: LOX IMVI

Measured: GI50

N#CC(C#N)=C(N)/C(C#N)=C\c1ccnc2ccccc12
inactive: [1] 18.9 µM | [2] 20 µM | [3] 3.21 µM | [4] 18.2 µM | [5] 18.9 µM | [6] > 100 µM | [7] 22.1 µM | [8] > 100 µM | [9] 23.6 µM | [10] 24.3 µM | [11] 18.5 µM | [12] 3.49 µM | [13] 37 µM

CS(=O)(=O)C1(Br)S(=O)(=O)OCCOS1(=O)=O
inactive: [1] > 100 µM | [2] > 100 µM | [3] > 100 µM | [4] > 100 µM | [14] > 100 µM | [5] > 100 µM | [6] > 100 µM | [7] > 100 µM | [8] > 100 µM | [10] > 100 µM | [11] > 100 µM | [12] > 100 µM | [13] > 100 µM

Cn1c(O)c(C(=O)Nc2cccs2)c(=O)[nH]c1=S
inactive: [1] 20.2 µM | [2] 14.8 µM | [3] 39 µM | [4] 12.2 µM | [14] 15.7 µM | [5] 14.1 µM | [6] 19.4 µM | [7] 18.2 µM | [8] 28.6 µM | [9] 13 µM | [10] 15.4 µM | [11] 18.8 µM | [12] 26.2 µM

OCCNCO
inactive: [1] > 100 µM | [2] > 100 µM | [3] > 100 µM | [4] > 100 µM | [14] > 100 µM | [5] > 100 µM | [6] > 100 µM | [7] > 100 µM | [8] > 100 µM | [9] > 100 µM | [10] > 100 µM | [11] > 100 µM | [12] > 100 µM

CCCCc1c2c(nc3c1CCC/C3=C\c1ccccc1)C(=O)CCC2
inactive: [1] 25.2 µM | [2] 15.2 µM | [3] 17.4 µM | [4] 24.5 µM | [14] 17.6 µM | [5] 22.6 µM | [6] 25.6 µM | [7] 18.6 µM | [8] 19.5 µM | [10] 17 µM | [11] 21.3 µM | [12] 22 µM | [13] 20.3 µM

N#CC(C(=O)C(=O)Nc1ccccc1)c1ccccc1 (centres undefined)
inactive: [1] > 100 µM | [2] > 100 µM | [3] > 100 µM | [4] > 100 µM | [14] > 100 µM | [5] > 100 µM | [6] > 100 µM | [7] > 100 µM | [9] > 100 µM | [10] > 100 µM | [11] > 100 µM | [12] > 100 µM

C1=CC(=P(c2ccccc2)(c2ccccc2)c2ccccc2)C=C1
inactive: [1] 10.4 µM | [3] 3.42 µM | [4] 15.9 µM | [14] 6.5 µM | [5] 6.25 µM | [6] 14.1 µM | [7] 11.5 µM | [8] 14.7 µM | [9] 17.9 µM | [10] 7.48 µM | [11] 10.3 µM | [12] 16.1 µM | [13] 10.6 µM

CCN(/N=C1\CC2C=CCN(C2)C(=O)Cc2c1[nH]c1ccccc21)S(=O)(=O)c1ccc(C)cc1 (centres undefined)
inactive: [1] > 100 µM | [2] > 100 µM | [3] > 100 µM | [4] 39.4 µM | [14] > 100 µM | [5] 38.8 µM | [6] 49.8 µM | [7] 68.4 µM | [9] 25.4 µM | [10] 94.2 µM | [12] 78 µM | [13] > 100 µM

COc1ccc(-c2oc(/C=N/c3ccccc3)c([N+](=O)[O-])c2-c2ccc(OC)c(OC)c2)cc1OC
inactive: [1] > 100 µM | [2] > 100 µM | [4] > 100 µM | [14] > 100 µM | [5] > 100 µM | [6] > 100 µM | [7] > 100 µM | [8] > 100 µM | [9] > 100 µM | [10] > 100 µM | [11] > 100 µM | [12] > 100 µM | [13] > 100 µM

c1cncc(CSc2nc3ccccc3nc2-c2cccs2)c1
inactive: [1] 58.2 µM | [3] 30.6 µM | [4] 36.4 µM | [14] > 100 µM | [6] 53.6 µM | [8] > 100 µM | [9] > 10 µM | [10] > 100 µM | [11] 7.71 µM | [12] 91.4 µM | [13] 86.1 µM

CCC(=O)C(C(=O)CC)c1c(OC(=O)c2ccccc2)ccc(O)c1C(=O)OC
inactive: [1] > 100 µM | [2] > 100 µM | [3] > 100 µM | [4] > 100 µM | [14] > 100 µM | [5] > 100 µM | [6] > 100 µM | [7] > 100 µM | [8] > 100 µM | [9] > 100 µM | [10] > 100 µM | [11] > 100 µM | [12] > 100 µM

O=C(NN1C(=O)C(Cl)C1c1ccccc1Cl)c1ccccc1O (centres undefined)
inactive: [1] > 100 µM | [2] > 100 µM | [3] > 100 µM | [4] > 100 µM | [14] > 100 µM | [5] > 100 µM | [6] > 100 µM | [10] > 100 µM | [11] 71.1 µM | [13] > 100 µM

Cc1cc2c(C)nn(Cc3ccc(Cl)cc3)c2c(C#N)c1C
inactive: [1] 63.2 µM | [2] > 100 µM | [3] > 100 µM | [4] > 100 µM | [5] > 100 µM | [6] > 100 µM | [7] > 100 µM | [8] > 100 µM | [10] > 100 µM | [11] > 100 µM | [12] > 100 µM | [13] > 100 µM

Cc1cc(Br)ccc1/N=N/C1C(=O)ON=C1c1ccccc1 (centres undefined)
inactive: [1] > 100 µM | [2] > 100 µM | [4] 46.9 µM | [14] 63.4 µM | [5] > 100 µM | [6] 25.7 µM | [7] > 100 µM | [8] > 100 µM | [10] > 100 µM | [11] > 100 µM | [12] > 100 µM | [13] 26.5 µM

CCc1ccccc1NC(=O)C1=C(C)NC(C)=C(C(=O)Nc2ccccc2CC)C1c1cccc([N+](=O)[O-])c1
inactive: [1] 43 µM | [2] 39.4 µM | [3] 12.1 µM | [4] 11.5 µM | [14] 87.9 µM | [6] 21.5 µM | [7] 21.8 µM | [8] 41.5 µM | [9] 43.8 µM | [10] 33.2 µM | [11] 43 µM | [12] 47.5 µM | [13] 11.7 µM

COc1ccc(-c2cc(=O)c3c(O)cccc3o2)c(OC)c1OC
inactive: [1] > 100 µM | [2] 16.1 µM | [3] > 100 µM | [14] 55.2 µM | [5] > 100 µM | [6] 26.6 µM | [7] > 100 µM | [8] 6.67 µM | [9] 97.3 µM | [10] > 100 µM | [11] > 100 µM | [12] 22.4 µM | [13] > 100 µM
